Our source for the Ki values is ChEMBL document CHEMBL1139687, “Inhibitory effect of carboxylic acid group on hERG binding” (Bioorg Med Chem Lett, 2006).

Where only a bound is given, the exact number is not on record here.

Broadly, the Ki is the equilibrium dissociation constant of an inhibitor or competing ligand from its target. A low value points to tighter binding.

Voltage-gated inwardly rectifying potassium channel KCNH2, sequence (Q12809 whole entry): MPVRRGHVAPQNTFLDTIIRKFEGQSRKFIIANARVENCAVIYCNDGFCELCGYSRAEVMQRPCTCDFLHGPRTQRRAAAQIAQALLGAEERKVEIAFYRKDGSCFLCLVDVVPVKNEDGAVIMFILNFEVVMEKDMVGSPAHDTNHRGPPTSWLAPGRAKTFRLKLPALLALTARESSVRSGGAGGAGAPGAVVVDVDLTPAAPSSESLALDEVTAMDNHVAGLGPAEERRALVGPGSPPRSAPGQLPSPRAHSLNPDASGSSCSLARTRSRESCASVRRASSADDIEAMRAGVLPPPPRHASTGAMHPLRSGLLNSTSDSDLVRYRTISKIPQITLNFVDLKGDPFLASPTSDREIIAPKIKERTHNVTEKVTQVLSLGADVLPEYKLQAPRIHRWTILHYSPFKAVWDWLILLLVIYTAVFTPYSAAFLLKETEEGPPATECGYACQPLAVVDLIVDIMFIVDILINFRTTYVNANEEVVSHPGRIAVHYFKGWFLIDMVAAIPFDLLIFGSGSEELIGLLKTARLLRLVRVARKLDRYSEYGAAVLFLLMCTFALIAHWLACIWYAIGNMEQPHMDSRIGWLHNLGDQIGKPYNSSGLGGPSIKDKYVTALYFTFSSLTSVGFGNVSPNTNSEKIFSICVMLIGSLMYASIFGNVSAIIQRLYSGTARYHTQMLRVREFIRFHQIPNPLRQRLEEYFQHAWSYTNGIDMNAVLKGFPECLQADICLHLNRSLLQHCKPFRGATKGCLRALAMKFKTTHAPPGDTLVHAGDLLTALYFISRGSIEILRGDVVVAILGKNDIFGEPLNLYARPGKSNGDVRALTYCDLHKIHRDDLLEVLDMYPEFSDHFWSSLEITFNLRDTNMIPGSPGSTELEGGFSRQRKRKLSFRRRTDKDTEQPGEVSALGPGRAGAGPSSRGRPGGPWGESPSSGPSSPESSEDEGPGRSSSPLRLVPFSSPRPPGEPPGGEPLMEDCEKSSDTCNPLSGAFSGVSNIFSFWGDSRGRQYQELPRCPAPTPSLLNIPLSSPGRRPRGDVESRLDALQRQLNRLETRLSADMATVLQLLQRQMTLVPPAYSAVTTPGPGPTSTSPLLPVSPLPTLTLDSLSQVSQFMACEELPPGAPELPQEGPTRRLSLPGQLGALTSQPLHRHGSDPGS

This assay concerns the target Voltage-gated inwardly rectifying potassium channel KCNH2 (Homo sapiens, UniProt Q12809). In words: Displacement of [3H]dofetilide from human ERG potassium channel expressed in HEK293 cells.
For the molecule `CN(C)C(=N)c1ccc(C(=O)Nc2ccc(Cl)cc2C(=O)Nc2ccc(Cl)cn2)c(N2CCCCC2C(=O)O)c1` (configuration not stated), the Ki is over 2000 nM.

Take `CN(C)C(=N)c1ccc(CN2C(=O)CN(S(=O)(=O)c3cc4cc(Cl)ccc4[nH]3)C[C@@H]2C(=O)O)cc1`: the Ki was over 10000 nM.

Molecule `CN(C)C(=N)c1ccc(C(=O)Nc2ccc(Sc3ccc(C(=O)N(C)C)cc3)cc2C(=O)Nc2ccc(Cl)cn2)cc1` registered a Ki of 370 nM. In other words, the sub-micromolar range.

Take `COc1cc(Cl)cc(C(=O)Nc2ccc(Cl)cn2)c1NC(=O)c1ccc(C(=N)N2CCC(C(=O)O)CC2)cc1F`: the Ki is over 10000 nM.

In the case of `CN(C)C(=N)c1ccc(C(=O)Nc2ccc(Cl)cc2C(=O)Nc2ccc(Cl)cn2)cc1`, the Ki is 100 nM.

Molecule `C/C(=C(\F)C(=O)N(CC(=O)O)c1ccc(-c2ccccc2S(N)(=O)=O)cc1)c1cccc(C(=N)N)c1` displayed a Ki of over 10000 nM.

`CN(CCCC(=O)O)C(=N)c1ccc(C(=O)Nc2ccc(Cl)cc2C(=O)Nc2ccc(Cl)cn2)cc1` displayed a Ki of 1400 nM.

In turn, `CN(C)C(=N)c1ccc(C(=O)Nc2ccc(Cl)cc2C(=O)Nc2ccc(Cl)cn2)c(N2CCC(C(=O)O)CC2)c1` yielded a Ki of over 10000 nM.

Consider `COC(=O)CCc1ccc(NC(=O)c2ccc(C(=N)N(C)C)cc2)c(C(=O)Nc2ccc(Cl)cn2)c1`, for which affinity was put at a Ki of 790 nM. That is a sub-micromolar value.

Take `Cc1cc(C(=O)Nc2ccc(-c3ccccc3CN3CCCCC3)cc2F)n(-c2cc3ccccc3cc2F)n1`: the inhibition constant (Ki) came out at 1000 nM.

For `CN1CCN=C1c1ccc(C(=O)N2CCN(S(=O)(=O)c3cc4ccc(Cl)cc4s3)CC2CC(=O)N2CCOCC2)cc1` (configuration not stated), the Ki turned out to be 600 nM. Against the preceding molecule, the Ki is about 1.7-fold lower.

On to `CN(C)C(=N)c1ccc(C(=O)Nc2ccc(Sc3ccc(C(=O)O)cc3)cc2C(=O)Nc2ccc(Cl)cn2)cc1`, for which the affinity, expressed as Ki, was 4600 nM.

For the molecule `CCOC(=O)C1CCN(C(=N)c2ccc(C(=O)Nc3c(OC)cc(Cl)cc3C(=O)Nc3ccc(Cl)cn3)c(F)c2)CC1`, affinity was put at a Ki of 51 nM.

For `CN1CCN=C1c1ccc(C(=O)N2CCN(S(=O)(=O)c3cc4ccc(Cl)cc4s3)CC2CC(=O)N2CCCC(C(=O)O)C2)cc1` (configuration not stated), the inhibition constant Ki is over 10000 nM.

`CN(C)C(=N)c1ccc(C(=O)Nc2ccc(Cl)cc2C(=O)Nc2ccc(Cl)cn2)c(N(C)CCCC(=O)O)c1`: the Ki is over 6600 nM.

The molecule `Cc1cc(C(=O)Nc2ccc(C(=N)N3CCCC3)cc2)n(-c2cc3ccccc3cc2C(=O)O)n1` yielded a Ki of over 10000 nM.

For the molecule `N=C(c1ccc(C(=O)Nc2ccc(Cl)cc2C(=O)Nc2ccc(Cl)cn2)cc1)N1CCCC(C(=O)O)C1` (configuration not stated), the Ki is over 10000 nM.

For `CCOC(=O)C1CCN(C(=N)c2ccc(C(=O)Nc3ccc(Cl)cc3C(=O)Nc3ccc(Cl)cn3)cc2)CC1`, the Ki is 17 nM.

As for `CN(CC(=O)O)C(=N)c1ccc(C(=O)Nc2ccc(Cl)cc2C(=O)Nc2ccc(Cl)cn2)cc1`, the affinity, expressed as Ki, was 1400 nM.

Consider `CC(=N)N1CCC(Oc2ccc(N(Cc3ccc4ccc(C(=N)N)cc4c3)S(=O)(=O)CC(=O)O)cc2)CC1` [YM-60828], for which the Ki is over 10000 nM.

The molecule `COC(=O)c1ccc(Oc2ccc(NC(=O)c3ccc(C(=N)N(C)C)cc3)c(C(=O)Nc3ccc(Cl)cn3)c2)cc1` showed a Ki of 570 nM.

For the molecule `CN(C)C(=N)c1ccc(C(=O)Nc2ccc(Oc3ccc(C(=O)O)cc3)cc2C(=O)Nc2ccc(Cl)cn2)cc1`, the Ki was over 10000 nM.
